Test results from paper PMC8989888, “Development of optimized drug-like small molecule inhibitors of the SARS-CoV-2 3CL protease for treatment of COVID-19” (Nature Communications, 2022).
“And” between values parts separate entries of the source, which are not always exact repeats. Equal entries are not always repeated. Where two headings read alike, the source gives them in different places.

Experiments:
SARS-CoV-2 3CL protease [1] = target: T1, SARS-CoV-2 3CL protease (Severe acute respiratory syndrome coronavirus 2, UniProt P0DTD1); assay: biochemical; conditions: for IC50: 20 nM protease, read-out: SARS-CoV-2 3CLpro IC50
SARS-CoV-2 3CL protease [2] = target: T1, SARS-CoV-2 3CL protease; assay: biochemical; conditions: for kinact/KI: read-out: SARS-CoV-2 3CLpro kinact/KI
SARS-CoV-2 [3] = assay: microbe, parasite or virus in culture; type: cell-based; conditions: for EC50: Severe acute respiratory syndrome coronavirus 2, 24 h, read-out: SARS-CoV-2 Huh-7ACE2 EC50
SARS-CoV-2 [4] = assay: microbe, parasite or virus in culture; type: cell-based; conditions: Severe acute respiratory syndrome coronavirus 2, Vero C1008, read-out: SARS-CoV-2 Vero E6 EC50
[5] = Concentration of inhibitor (nM) 0.19382
[6] = Concentration of inhibitor (nM) 0.49485
[7] = Concentration of inhibitor (nM) 0.79588
[8] = Concentration of inhibitor (nM) 1.09691
[9] = Concentration of inhibitor (nM) 1.39794
[10] = Concentration of inhibitor (nM) 1.69897
[11] = Concentration of inhibitor (nM) 2
[12] = Concentration of inhibitor (nM) 2.30103
[13] = Concentration of inhibitor (nM) 2.60206
[14] = Concentration of inhibitor (nM) -0.10721
[15] = Concentration of inhibitor (nM) -0.40824

## CC(C)C[C@H](NC(=O)OCc1cc(F)c(F)cc1F)C(=O)N[C@@H](C[C@@H]1CCNC1=O)C(O)S(=O)(=O)O (stereo partly drawn) [NK01-48]
SARS-CoV-2 3CL protease [1]
  IC50: 92 nM
SARS-CoV-2 3CL protease [1]; [5]
  normalized activity, dose-response curve (Figure S16): 99.5986 and 99.2546
SARS-CoV-2 3CL protease [1]; [6]
  normalized activity, dose-response curve (Figure S16): 84.289 and 78.0963
SARS-CoV-2 3CL protease [1]; [7]
  normalized activity, dose-response curve (Figure S16): 92.7179 and 89.3922
SARS-CoV-2 3CL protease [1]; [8]
  normalized activity, dose-response curve (Figure S16): 76.6628 and 70.7569
SARS-CoV-2 3CL protease [1]; [9]
  normalized activity, dose-response curve (Figure S16): 79.2431 and 69.9541
SARS-CoV-2 3CL protease [1]; [10]
  normalized activity, dose-response curve (Figure S16): 62.156 and 55.5619
SARS-CoV-2 3CL protease [1]; [11]
  normalized activity, dose-response curve (Figure S16): 48.3945 and 50.2294
SARS-CoV-2 3CL protease [1]; [12]
  normalized activity, dose-response curve (Figure S16): 33.7729 and 21.5023
SARS-CoV-2 3CL protease [1]; [13]
  normalized activity, dose-response curve (Figure S16): 18.3486 and 12.328
SARS-CoV-2 3CL protease [1]; [14]
  normalized activity, dose-response curve (Figure S16): 97.1904 and 78.0963
SARS-CoV-2 3CL protease [1]; [15]
  normalized activity, dose-response curve (Figure S16): 97.1904 and 100
SARS-CoV-2 3CL protease [2]
  observed inactivation rate vs compound concentration (Figure S19, replicate values): 0.0181 and 0.0442 and 0.0252 and 0.0284 and 0.021 and 0.0128 and 0.0148 and 0.0158 and 0.0136 and 0.0037 and 0.0168 and 0.02 and 0.0021 and 0.0084 and 0.0011
  kinact/KI: 5000 M⁻¹ s⁻¹
SARS-CoV-2 [3]
  inhibition of SARS-CoV-2 (Figure s17b dose-response, replicate values): 125.494 and 126.964 and 86.3185 and 118.605 and 134.4 and 122.016 and 84.6265 and 61.89 and 119.128 and 54.4703 and 35.4275 and 15.416 and 32.4697 and 30.0193 and 47.7694 and 0.4554 and -12.5084 and -5.078 and 34.0338 and 10.0006 and 6.443
  EC50: 15 nM

## O=C(N[C@@H](CC1CC1)C(=O)N[C@@H](C[C@@H]1CCNC1=O)C(O)S(=O)(=O)O)OCc1ccccc1Cl (stereo partly drawn) [NK01-69]
SARS-CoV-2 3CL protease [1]
  IC50: 24 nM
SARS-CoV-2 3CL protease [1]; [5]
  normalized activity, dose-response curve (Figure S16): 88.5666 and 86.5188
SARS-CoV-2 3CL protease [1]; [6]
  normalized activity, dose-response curve (Figure S16): 72.8669 and 79.1809
SARS-CoV-2 3CL protease [1]; [7]
  normalized activity, dose-response curve (Figure S16): 75 and 74.3174
SARS-CoV-2 3CL protease [1]; [8]
  normalized activity, dose-response curve (Figure S16): 65.1024 and 60.8362
SARS-CoV-2 3CL protease [1]; [9]
  normalized activity, dose-response curve (Figure S16): 47.5256 and 39.3345
SARS-CoV-2 3CL protease [1]; [10]
  normalized activity, dose-response curve (Figure S16): 32.1672 and 24.5734
SARS-CoV-2 3CL protease [1]; [12]
  normalized activity, dose-response curve (Figure S16): 4.608 and 4.693
SARS-CoV-2 3CL protease [1]; [14]
  normalized activity, dose-response curve (Figure S16): 106.997 and 100.683
SARS-CoV-2 3CL protease [1]; [15]
  normalized activity, dose-response curve (Figure S16): 89.5904 and 100
SARS-CoV-2 3CL protease [2]
  observed inactivation rate vs compound concentration (Figure S19, replicate values): 0.0682 and 0.0478 and 0.0347 and 0.0227 and 0.0119 and 0.047 and -0.00793 and 0.0043 and 0.0066 and 0.0454 and 0.0603 and 0.0339 and 0.0459 and 0.0266 and 0.0345 and 0.0301 and 0.0444 and 0.0675
  kinact/KI: 70000 M⁻¹ s⁻¹
SARS-CoV-2 [3]
  inhibition of SARS-CoV-2 (Figure s17b dose-response, replicate values): 112.139 and 77.9057 and 91.5513 and 79.8842 and 49.1022 and 70.5924 and 62.1924 and 62.9155 and 78.4113 and -0.7628 and 38.0643 and 11.5151 and -8.426 and 17.4096 and 4.8166 and -9.308 and 10.7894 and 11.3275 and 55.1502 and 29.5769 and 12.5491
  EC50: 35 nM

## CC(C)C[C@H](NC(=O)OCc1cccc2ccccc12)C(=O)N[C@@H](C[C@@H]1CCNC1=O)C(O)S(=O)(=O)O (stereo partly drawn) [EB55]
SARS-CoV-2 3CL protease [1]
  IC50: 72 nM
SARS-CoV-2 3CL protease [1]; [5]
  normalized activity, dose-response curve (Figure S16): 97.6947 and 91.9164
SARS-CoV-2 3CL protease [1]; [6]
  normalized activity, dose-response curve (Figure S16): 90.7787 and 89.6887
SARS-CoV-2 3CL protease [1]; [7]
  normalized activity, dose-response curve (Figure S16): 89.0003 and 83.5464
SARS-CoV-2 3CL protease [1]; [8]
  normalized activity, dose-response curve (Figure S16): 84.4555 and 78.5499
SARS-CoV-2 3CL protease [1]; [9]
  normalized activity, dose-response curve (Figure S16): 77.2102 and 70.0207
SARS-CoV-2 3CL protease [1]; [10]
  normalized activity, dose-response curve (Figure S16): 64.1027 and 59.773
SARS-CoV-2 3CL protease [1]; [11]
  normalized activity, dose-response curve (Figure S16): 47.4055 and 42.8102
SARS-CoV-2 3CL protease [1]; [12]
  normalized activity, dose-response curve (Figure S16): 16.7117 and 14.6768
SARS-CoV-2 3CL protease [1]; [14]
  normalized activity, dose-response curve (Figure S16): 100.329 and 102.132
SARS-CoV-2 3CL protease [1]; [15]
  normalized activity, dose-response curve (Figure S16): 100
SARS-CoV-2 3CL protease [2]
  observed inactivation rate vs compound concentration (Figure S19, replicate values): 0.0457 and 0.0269 and 0.0571 and -0.0002 and 0.0258 and 0.0554 and 0.0425 and 0.0417 and 0.0134 and 0.0205 and 0.022 and 0.0066
  kinact/KI: 21700 M⁻¹ s⁻¹
SARS-CoV-2 [4]
  EC50: 3000 nM
SARS-CoV-2 [3]
  inhibition of SARS-CoV-2 (Figure s17b dose-response, replicate values): 100.856 and 96.5428 and 101.322 and 91.4468 and 90.1295 and 92.8292 and 65.5151 and 69.1898 and 72.8142 and 38.0936 and 42.5735 and 35.1981 and 28.1354 and 24.4902 and 21.8952 and 10.9114 and 19.9799 and 11.8441 and 9.792 and 14.2234 and 10.7567
  EC50: 11 nM

## O=C(N[C@@H](CC1CC1)C(=O)N[C@@H](C[C@@H]1CCNC1=O)C(O)S(=O)(=O)O)OCc1cccc(Cl)c1 (stereo partly drawn) [NK01-57]
SARS-CoV-2 3CL protease [1]
  IC50: 13 nM
SARS-CoV-2 3CL protease [1]; [5]
  normalized activity, dose-response curve (Figure S16): 95.6172 and 86.9248
SARS-CoV-2 3CL protease [1]; [6]
  normalized activity, dose-response curve (Figure S16): 85.9021 and 78.3053
SARS-CoV-2 3CL protease [1]; [7]
  normalized activity, dose-response curve (Figure S16): 79.0358 and 66.0336
SARS-CoV-2 3CL protease [1]; [8]
  normalized activity, dose-response curve (Figure S16): 62.3083 and 48.2104
SARS-CoV-2 3CL protease [1]; [9]
  normalized activity, dose-response curve (Figure S16): 43.3163 and 27.8305
SARS-CoV-2 3CL protease [1]; [10]
  normalized activity, dose-response curve (Figure S16): 26.2235 and 13.9518
SARS-CoV-2 3CL protease [1]; [12]
  normalized activity, dose-response curve (Figure S16): 6.939 and 9.715
SARS-CoV-2 3CL protease [1]; [13]
  normalized activity, dose-response curve (Figure S16): 9.934 and 9.2038
SARS-CoV-2 3CL protease [1]; [14]
  normalized activity, dose-response curve (Figure S16): 107.889 and 102.703
SARS-CoV-2 3CL protease [1]; [15]
  normalized activity, dose-response curve (Figure S16): 100 and 101.315
SARS-CoV-2 3CL protease [2]
  observed inactivation rate vs compound concentration (Figure S19, replicate values): 0.0175 and 0.0065 and 0.0112 and -0.01176 and 0.0254 and -0.00163 and 0.0094 and -0.00166 and -0.05051 and -0.00614 and -0.01353 and -0.00565 and -0.00112 and -0.0108 and -0.00266 and -0.00784 and 0.0038 and -0.0081 and -0.00313 and -0.00276 and 0.0019
SARS-CoV-2 [3]
  inhibition of SARS-CoV-2 (Figure s17b dose-response, replicate values): 104.54 and 74.4176 and 64.8123 and 55.4072 and 79.8077 and 89.5745 and 61.4462 and 18.0183 and 12.437 and -10.4634 and -16.0501 and 3.693 and 24.8584 and -12.4097 and 6.795 and 29.8589 and -3.6952 and 33.5228 and 9.378 and -5.3463 and 36.5619
  EC50: 92 nM

## O=C(N[C@@H](CC1CC1)C(=O)N[C@@H](C[C@@H]1CCNC1=O)C(O)S(=O)(=O)O)OCc1ccccc1 (stereo partly drawn) [NK01-14]
SARS-CoV-2 3CL protease [1]
  IC50: 22 nM
SARS-CoV-2 3CL protease [1]; [5]
  normalized activity, dose-response curve (Figure S16): 88.3287 and 88.0525
SARS-CoV-2 3CL protease [1]; [6]
  normalized activity, dose-response curve (Figure S16): 79.1436 and 83.9088
SARS-CoV-2 3CL protease [1]; [7]
  normalized activity, dose-response curve (Figure S16): 76.0359 and 72.2376
SARS-CoV-2 3CL protease [1]; [8]
  normalized activity, dose-response curve (Figure S16): 63.3978 and 55.1105
SARS-CoV-2 3CL protease [1]; [9]
  normalized activity, dose-response curve (Figure S16): 56.2155 and 53.3149
SARS-CoV-2 3CL protease [1]; [10]
  normalized activity, dose-response curve (Figure S16): 37.1547 and 46.616
SARS-CoV-2 3CL protease [1]; [11]
  normalized activity, dose-response curve (Figure S16): 24.2403 and 25.2762
SARS-CoV-2 3CL protease [1]; [12]
  normalized activity, dose-response curve (Figure S16): 7.666 and 9.392
SARS-CoV-2 3CL protease [1]; [14]
  normalized activity, dose-response curve (Figure S16): 96.8923 and 94.268
SARS-CoV-2 3CL protease [1]; [15]
  normalized activity, dose-response curve (Figure S16): 109.254 and 100
SARS-CoV-2 3CL protease [2]
  observed inactivation rate vs compound concentration (Figure S19, replicate values): 0.0144 and -0.00118 and 0.0245 and 0.0068 and 0.0252 and 0.0272 and 0.0287 and 0.0225 and 0.0192 and -0.00612 and 0.0023 and 0.0187
  kinact/KI: 71700 M⁻¹ s⁻¹
SARS-CoV-2 [3]
  inhibition of SARS-CoV-2 (Figure s17b dose-response, replicate values): 107.44 and 106.681 and 107.657 and 104.164 and 95.5823 and 98.4941 and 57.1014 and 42.1437 and 64.5278 and 21.8135 and 20.6648 and 21.9136 and 20.2988 and 22.5837 and -3.217 and 20.0515 and 23.307 and 7.747 and 3.643 and 5.208 and 12.2626
  EC50: 26 nM
